For this assay, the system named is HCV genotype 1b strain Con1 replicon (ET replicon line, Huh7 cells). Description: HCV ET replicon luciferase assay. Type of assay: cell-based. As to conditions: Hepatitis C virus, Huh-7; ET replicon line (Huh7 cells, HCV genotype 1b Con1 replicon), luciferase read-out, 72 hours; compounds in free or salt form. The method, then:
Compounds of the current invention are believed useful in the treatment and/or prophylaxis of conditions and diseases associated with HcV infection. Activity mediated through HCV was determined using an ET replicon line.
The Materials used include a Medium comprised of DMEM (1× liquid, high glucose); Invitrogen cat# 11965-092; 100×Penicillin/Streptomycin solution (10,000 Units/mL); Invitrogen cat# 15140-122; 100×Non-essential amino acid solution (10 mM); Invitrogen cat# 11140-050; Fetal bovine serum; JRH Biosciences cat# 12107-500M; Geneticin (50 mg/mL); Invitrogen cat# 10131-035
The Luciferase assay reagents include Steady-Glo Luciferase assay system, cat# E2550 (Promega)
The ET replicon line (see Lohmann et al. (1999), Replication of subgenomic hepatitis C virus RNAs in a hepatoma cell line. Science 285:110-113; Krieger et al. (2001), Enhancement of hepatitis C virus RNA replication by cell culture-adaptive mutations. J. Virol. 75: 4614-4624; and Vrolijk et al. (2003), A replicon-based bioassay for the measurement of interferons in patients with chronic hepatitis C. J. Virol. Meth. 110: 201-209, each herein incorporated by reference with regard to the ET replicon line), includes Huh7 cells stably transfected with HCV genotype 1b strain Con1 replicon. This replicon expresses the firefly luciferase, has the coding region for ubiquitin inserted upstream of the neomycin gene, and carries three cell culture-adaptive mutations that enhance RNA replication cooperatively (E1202G, T1280I, and S2197P). The ET cell line was obtained under license from: ReBLikon GmbH, Nach dem alten Schloss 22, 55239 Gau-Odernheim, Germany.
Cells are maintained at 37° C., 5% CO2, in DMEM with 10% FCS, 1× penicillin/streptomycin, 1× non-essential amino acids, 0.5 mg/mL Geneticin. For passage, cells are washed once with PBS, and incubated at 37° C. with sufficient trypsin (0.05%)/versene to cover the monolayer. Once detached from the flask, cells are mixed with several mLs of DMEM+10% FBS to inactivate the trypsin, then diluted appropriately (usually 1 in 5 or 1 in 10) with sufficient medium to pass to a new flask. For a T225 flask, 40-50 mLs total volume of cells+medium is typically used. To prevent the density dependent drop in replicon RNA, the ET cell line is maintained at sub-confluent (60-80%) levels.
Compounds are diluted in DMSO across the first 10 wells of a Costar V-bottom 96-well plate using a Biomek 2000 Workstation (Beckman-Coulter), with 0.5 log10 dilution intervals. DMSO only is added to the last two columns of the plate. The top concentration of drug in this master plate is typically 2.5 mM. A 1/5 dilution of the compounds is made by adding DMEM+10% FBS with a multichannel pipettor, giving a top concentration of 500 μM. 5 μL of diluted compounds is transferred into black Costar flat bottom 96-well daughter plates using a RapidPlate workstation (Zymark).
Cells are grown to approximately 80% confluency and trypsinised as described above. Cells are counted in a Levy Hemocytometer and diluted to 20,000 cells/ml in DMEM containing 10% FBS, 1× penicillin/streptomycin, 1×NEAAs. (Note: Geneticin is omitted for the assay).
245 μL cell suspension is added to the first 11 columns of the daughter plates prepared as above using a Multidrop dispenser (Titertek). Thus, 5,000 cells are added per well, and the final top concentration of each compound is 10 μM. The twelfth column of each plate is used to generate background readings for the assay. […]
(In general: In antiviral work, replicon cells carry a viral genome segment that copies itself.)

Molecules are shown by their SMILES. Where a name gives a salt, the structure may show the parent alone.

With `Clc1ccc2[nH]c3c(c2c1)CCCC3Nc1ncccn1` (centres unmarked) [Example 23, 6-Chloro-N-pyrimidin-2-yl-2,3,4,9-tetrahydro-1H-carbazol-1-amine], the IC50 turned out to be 52 nM.
Under `Brc1ccc2[nH]c3c(c2c1)CCCC3Nc1ccccn1` (centres unmarked) [Example 27, 6-Bromo-N-pyridin-2-yl-2,3,4,9-tetrahydro-1H-carbazol-1-amine Hydrochloride] stands 8 nM.
As for `Brc1ccc2[nH]c3c(c2c1)CCCC3Nc1ccccc1` (centres unmarked) [Example 13, 6-Bromo-N-Phenyl-2,3,4,9-tetrahydro-1H-carbazol-1-amine], the figure is 10 nM; as for `Clc1ccc2[nH]c3c(c2c1)CCCC3Nc1ccccc1` (centres unmarked) [Example 14, 6-Chloro-N-phenyl-2,3,4,9-tetrahydro-1H-carbazol-1-amine], 5 nM.
For the compound `Brc1ccc2[nH]c3c(c2c1)CCCCC3Nc1ncccn1` (centres unmarked) [Example 38, 2-Bromo-N-pyrimidin-2-yl-5,6,7,8,9,10-hexahydrocyclohepta[b]indol-6-amine], the concentration for half-maximal inhibition (IC50) amounted to 39 nM.

Usually IC50 stands for the concentration that inhibits the measured activity by half.

The values are drawn from US20090156621A1, “HCV INHIBITORS” (priority 2004, published 2009).
